Experiments:
[1] = tested on: Complete Freund's Adjuvant (CFA) induced joint inflammation in rat; details: CFA #1
Method: Because OA is now known to have an inflammatory component, an animal model that mimics inflammatory arthritis was used to test HA/GlcN/CS formulations. Complete Freund's Adjuvant (CFA) comprises an emulsion of killed bacterial cells that is injected systemically or into the joint of a rat to induce severe inflammation. Two CFA studies were conducted, the first using a 200 uL injection of CFA to induce inflammation (CFA #1), the second using an injection volume of 100 uL (CFA #2). Test articles were prepared using the liquid/liquid formulation method described above.
Von Frey filaments were used to assess mechano-allodynia (pain sensation from a normally non-painful stimulus) on days 6, 7, 8, 17, and 21 following CFA injection. […] This protocol was used to test the 18.0 and 1.8 mg/mL HA/GlcN/CS formulations. As with the rat MMT model, the cumulative improvements in pain relief were calculated. […] In this figure, the 1.8 mg/mL HA/GlcN/CS group and the 18 mg/mL HA/GlcN/CS group are labeled as “G/C 1.8 mg/ml” and “G/C 18 mg/ml”, respectively. The untreated group is labeled as “Untx” in this figure.

[2] = tested on: Complete Freund's Adjuvant (CFA) induced joint inflammation in rat; experiment: CFA model of inflammatory arthritis, study CFA #2 (100 uL CFA); type: in vivo; details: daily oral, high dose 30 mg/kg, FIG. 8
Method: In CFA #2 the same protocol was followed except for the lower dose of CFA which was intended to induce a less severe inflammatory reaction and subsequently milder pain. Also, daily oral ibuprofen (labeled as “IBR” in FIG. 8) was used as a positive control rather than diclofenac, at doses of 10 mg/kg and high 30 mg/kg. These doses were equivalent to human daily doses of […] and 3600 mg, respectively. Both are considered high doses of ibuprofen that are generally not recommended for long term use.

[3] = tested on: PGPS (peptidoglycan polysaccharide) reactivation arthritis in male Lewis rats; experiment: PGPS model of episodic inflammatory arthritis: weight bearing and gait analysis; type: in vivo; details: PGPS second reactivation (after repriming)
Method: The PGPS model of arthritis is used to simulate episodic inflammation of the joint. PGPS (peptidoglycan polysaccharide) is a streptococcal cell wall formulation that is injected directly into the joint of the test subject, resulting in a painful inflammatory response. Unlike the continuous FCA response, the inflammatory pain from PGPS is transient, typically lasting only a few days. Following this “priming” injection to the joint, subsequent systemic injections result in inflammatory flares in the previously injected joint for a period of several days. The “reactivation” inflammatory flares can be repeated multiple times, with the inflammatory pain generally decreasing with subsequent reactivation cycles. Alternatively, the joint can be “reprimed” following the initial reactivation, resulting in a more robust inflammatory response in subsequent reactivations.
As with the rat MMT model, the effect of intra-articular therapies is assessed by static weight bearing measurements. […]
In the present experiment, two reactivation cycles were induced in male Lewis rats following the initial PGPS intra-articular injection. […] Weight bearing and gait analysis scores were recorded on days 1, 4, 7, and 14 following the reactivation injection. […] Weight bearing and gait analysis scores were recorded on days 1, 2, 3, and 4 following reactivation. […]

SMILES: O=C(O)Cc1ccccc1Nc1c(Cl)cccc1Cl [diclofenac]
- safety (premature deaths of animals) [1]: several animals in the diclofenac group died prematurely
- AUC analysis of pain relief compared to HA alone ([1]; comparison with HA alone, FIG. 7): statistically superior to HA alone
- AUC analysis of pain relief (Von Frey mechano-allodynia) ([1]; single IA injection on day 5 after CFA (diclofenac daily oral), days 6, 7, 8, 17, 21, FIG. 7): significant improvement in pain relief

SMILES: CC(C)Cc1ccc(C(C)C(=O)O)cc1 (centres unmarked) [ibuprofen]
- pain relief as cumulative improvement in weight bearing deficiency [2]: significant improvement in pain relief

SMILES: C[C@]12C=CC(=O)C=C1CC[C@H]1[C@@H]3C[C@@H](O)[C@](O)(C(=O)CO)[C@@]3(C)C[C@H](O)[C@@]12F [triamcinolone]
- weight bearing deficit [3]: significant improvement

Reference: US10532069B2, “Compositions and methods for treating joints” (DePuy Synthes Products, Inc., priority 2015, dated 2020)
